Source: US5376679A, “Bicyclic or tricyclic biocidal compounds” (Shell Internationale Research Maatschappij B.V., priority 1988, dated 1994)
Values after ≈ are worked out from the molar mass of the structure shown.

Tests used:
Aspergillus niger = experiment: Minimum inhibitory concentration, Aspergillus niger (An); type: cell-based, Aspergillus niger (CMI 17454); settings: 30° C., 3, 7 and 10 days
Description: (§1) Inocula of the fungi Aspergillus niger, Cladosporium resinae and Chaetomium globosum were prepared containing 5×10^5 conidia/ml in a potato dextrose broth. The potato dextrose broth was prepared by suspending 4 g potato extract and 20 g dextrose in 1 liter of distilled water, warming to achieve solution, separating into aliquots and sterilising by autoclaving at 121° C. for 15 minutes.
(§2) Test procedures were as follows:
(§3) (ii) Dilution Series for Other Test Bacteria, Yeast and Filamentous Fungi
(§4) Dilution series from the stock solution of each compound were prepared in sterile distilled water. These contained 50, 100, 500 and 1000 ppm compound. To duplicate wells of a compartmentalised square petri dish 0.3 ml of each test compound concentration was added together with 2.7 ml of one of the microbial inocula described above. This gave final concentrations of the test compound of 5, 10, 50 and 100 ppm.
(§5) After incubation, in the dark, at 30° C. the wells were examined for the presence or absence of growth. Bacterial and yeast cultures were examined after 24 hours and 72 hours incubation and the fungi cultures after 3, 7 and 10 days.
(§6) By means of the above tests minimum inhibitory concentrations were determined for the various test compounds.

Escherichia coli = experiment: Minimum inhibitory concentration, Escherichia coli (Ec); type: cell-based, Escherichia coli (NCIB 9517); settings: 30° C., 24 and 72 hours
Description: (§7) In respect of S. aureus, B. subtilis and E. coli, the microorganisms were cultured in 50 ml aliquots of a tryptone soya broth in 250 ml conical flasks at 30° C. on a rotary shaker at 200 rpm for 24 hours. Tryptone soya broth was prepared by adding 17 g pancreatic digest of casein, 3 g […] digest of soyabean meal, 5 g of sodium chloride, 2.5 g of dipotassium hydrogen phosphate and 2.5 g of dextrose to 1 liter of distilled water, mixing and sterilising by autoclaving at 121° C. for 15 minutes. 1 ml aliquots of the resulting cultures were mixed with 99 ml of fresh tryptone soya broth and used as inocula for tests. […] Test procedures were as follows: (ii) Dilution Series for Other Test Bacteria, Yeast and Filamentous Fungi Dilution series from the stock solution of each compound were prepared in sterile distilled water. These contained 50, 100, 500 and 1000 ppm compound. To duplicate wells of a compartmentalised square petri dish 0.3 ml of each test compound concentration was added together with 2.7 ml of one of the microbial inocula described above. […] After incubation, in the dark, at 30° C. the wells were examined for the presence or absence of growth. Bacterial and yeast cultures were examined after 24 hours and 72 hours incubation and the fungi cultures after 3, 7 and 10 days. By means of the above tests minimum inhibitory concentrations were determined for the various test compounds.

[1] = system: Pseudocercosporella herpotrichoides; experiment: In vitro activity against wheat eyespot (Ph); type: cell-based; design: Ph: activity against wheat eyespot: scale not given here; settings: in vitro, 100 ppm in agar, 11 days; activity grade 1 or 2, not defined
Description: (c) Activity Against Wheat Eyespot (Pseudocercosporella herpotrichoides; Ph)
The test is an in vitro one. Samples are prepared wherein 0.7 mls solution containing 2 mg active material dissolved in acetone is evenly dispersed in 20 ml molten half-strength potato dextrose agar (formed by dissolving 2 g potato extract, 10 g dextrose and 7.5 g agar in 1 liter of water and sterilising for 15 minutes and 121° C.) and the resulting 20 ml portions are allowed to set in 9 cm petri dishes. The concentration of active material in the resulting samples is 100 ppm. Upon setting, two plugs of 5 mm diameter taken from the advancing edge of a stock plate of a 3 to 4 week old culture of P.herpotrichoides on full strength potato dextrose agar, incubated at 20°-22° C. in darkness, are placed, equally spaced on the surface of each sample, mycelial side uppermost. The samples are incubated for 11 days at 20°-22° C. in darkness before assessment. Diametric growth is measured with the width of the plug subtracted and results compared with growth on a sample wherein 0.7 ml acetone containing no active material is dispersed in 20 ml half-strength potato agar.

Bacillus subtilis = experiment: Minimum inhibitory concentration, Bacillus subtilis (Bs); type: cell-based; settings: 30° C., 24 and 72 hours
Description: as §7

Saccharomyces cerevisiae = experiment: Minimum inhibitory concentration, yeast (Sc); type: cell-based, Saccharomyces cerevisiae (ATCC 9763); settings: 30° C., 24 and 72 hours
Description: Inocula of S. cerevisiae were prepared as for S. aureus, B. subtilis and E. coli, but using yeast malt broth in place of the typtone soya broth. The yeast malt broth was prepared by suspending 3 g yeast extract, 3 g malt extract, 5 g peptone and 10 g dextrose in 1 liter of distilled water, warming to achieve solution and sterilising by autoclaving at 121° C. for 15 minutes.
as §2, §3, §4, §5, §6

Cladosporium resinae = experiment: Minimum inhibitory concentration, Cladosporium resinae (Cr); type: cell-based; settings: Amorphotheca resinae, 30° C., 3, 7 and 10 days
Description: as §1, §2, §3, §4, §5, §6

Chaetomium globosum = experiment: Minimum inhibitory concentration, Chaetomium globosum (Chg); type: cell-based; settings: *only tested at 100 ppm
Description: as §1, §2, §3, §4, §5, §6

Leptosphaeria nodorum = experiment: Direct antisporulant activity against wheat leafspot (Ln); type: in vivo; design: scale not given here; settings: foliar spray, 1 kg/ha; activity grade 1 or 2, not defined
Description: (e) Activity Against Wheat Leafspot (Leptosphaeria nodorum; Ln) The test is a direct antisporulant one, using a foliar spray. Leaves of wheat plants ([…]), at the single leaf stage, are inoculated by spraying with an aqueous suspension containing 8×10^5 spores/mi. The inoculated plants are kept for 24 hours in a high humidity compartment prior to treatment. […] After drying, the plants are kept for 5 days under normal glasshouse conditions, followed by assessment. Assessment is based on the percentage of leaf area covered by sporulation compared with that on leaves of control plants.

Staphylococcus aureus = experiment: Minimum inhibitory concentration, Staphylococcus aureus (Sa); type: cell-based, Staphylococcus aureus (NCIB 6571); settings: 30° C., 24 and 72 hours
Description: as §7

Desulfovibrio sp. = experiment: Minimum inhibitory concentration, sulphate-reducing bacteria (Dsp); type: cell-based; settings: 30° C., 2, 5 and 10 days
Description: The sulphate reducing bacteria Desulfovibrio sp. were cultured in a modified Postgate's Medium B for 48 hours at 30° C. and used directly as an inoculum. The modified Postgate's Medium B consisted of 0.5 g dipotassium hydrogen phosphate, 1 g ammonium chloride, 1 g sodium sulphate, 5 g sodium lactate, 1 g yeast extract, 0.1 ml thioglycolic acid, 0.1 ml ascorbic acid, 0.5 g ferrous sulphate heptahydrate, 750 ml aged seawater and 250 ml distilled water, pH adjusted to 7.8, divided into aliquots and sterilised by autoclaving at 121° C. for 15 minutes. […] Test procedures were as follows: (i) Suphate-reducing Bacteria Test Dilution Series Duplicate aliquots (9.9 ml) of dilution series from the stock solutions of each compound were prepared in a modified Postgate's Medium B described above. These contained 100 ppm compound. These were then inoculated with 0.1 ml of inoculum. After incubation at 30° C., the presence or absence of growth--as indicated by a blackening of the medium due to ferrous sulphide production--was recorded at 2, 5 and 10 days. […] By means of the above tests minimum inhibitory concentrations were determined for the various test compounds.

Fusarium culmorum = experiment: Activity against seedling wheat blight, soil drench (Fs); type: in vivo; design: scale not given here; settings: 10 kg/ha, 21 days, activity grade 1 or 2, not defined
Description: (d) Activity Against Seedling Wheat Blight (Fusarium culmorum; Fs)
The test is an anti-sporulant one using a soil drench. Surface sterilised wheat seeds (var Waggoner) are inoculated by soaking in an aqueous suspension containing 7×10^5 spores/ml (60 mg seed per 80 ml suspension) at 22° C. for 6 hours. The seeds are then sown in pots (5 per pot) in sand at a depth of 1 cm. 1 day after inoculation and planting the active material is applied at a rate of 10 kg/ha by pouring on a soil drench (concentration 0.36 g/l active material in 12% v/v acetone/water) evenly over the sand. The pots are then transferred to a glasshouse, kept at 25° C. and watered sparingly. 21 days after inoculation the resulting seedlings are removed from the pots and their roots are gently washed. Visual assessment is made based on lesion development on stem base and upper roots in comparison with control seedlings.

[2] = system: Erysiphe graminis f.sp. hordei; experiment: Direct antisporulant activity against barley powdery mildew (Eg); type: in vivo; design: scale not given here; settings: foliar spray, 1 kg/ha; activity grade 1 or 2, not defined
Description: (f) Activity Against Barley Powdery Mildew (Erysiphe graminis f.sp. hordei; Eg) The test is a direct antisporulant one, using a foliar spray. Leaves of barley seedlings, cultivar Golden Promise, are inoculated by dusting with mildew conidia one day prior to treatment with the test compound. The inoculated plants are kept overnight at glasshouse ambient temperature and humidity prior to treatment. […] After drying, plants are returned to a compartment at ambient temperature and humidity for up to 7 days, followed by assessment. Assessment is based on the percentage of leaf area covered by sporulation compared with that on leaves of control plants.

Puccinia Recondita = experiment: Direct protectant activity against wheat brown rust (Pr); type: in vivo; design: scale not given here; settings: foliar spray, 1 kg/ha, 10 days; activity grade 1 or 2, not defined
Description: (i) Activity Against Wheat Brown Rust (Puccinia Recondita; Pr) The test is a direct protectant one using a foliar spray. […] The plants are then sprayed with the test compound at a dosage of 1 kg/ha using a track sprayer as described under (a). Test compounds are applied as solutions or suspensions in a mixture of acetone and water (50:50 v/v) containing 0.04% surfactant ("TWEEN 20"--Trade Mark). 18-24 hours after treatment, the seedlings are inoculated by spraying the plants from all sides with an aqueous spore suspension containing about 10^5 spores/ml. For 18 hours after inoculation, the plants are kept in high humidity conditions at a temperature of 20°-22° C. Thereafter, the plants are kept in ambient glasshouse conditions, that is, in moderate relative humidity and at a temperature of 20° C. The disease is assessed 10 days after inoculation on the basis of the percentage of the plant covered by sporulating pustules compared with that on the control plants.

Plasmopara viticola = experiment: Direct protectant activity against vine downy mildew (Pvp); type: in vivo; design: Pvp: direct protectant activity against vine downy mildew: scale not given here; settings: foliar spray, 1 kg/ha; activity grade 1 or 2, not defined
Description: (a) Direct Protectant Activity Against Vine Downy Mildew (Plasmopara viticola; Pvp)
The test is a direct protectant one, using a foliar spray. The lower surfaces of leaves of whole vine plants (cv Cabernet Sauvignon) are sprayed with a solution of active material in 1:1 v/v water/acetone containing 0.04% w "Triton X-155" (trade mark) (octylphenol polyoxyethylene surfactant), at a dosage of 1 kilogram of active material per hectare using a track sprayer which delivers 620 liters/ha, and after a subsequent 24 hours under normal glasshouse conditions the lower surfaces of the leaves are inoculated by spraying with an aqueous solution containing 10^4 zoosporangia/ml. The inoculated plants are kept for 24 hours in a high humidity compartment, 5 days under normal glasshouse conditions and then returned for a further 24 hours to high humidity. Assessment is based on the percentage of leaf area covered by sporulation compared with that on control leaves.

Alternaria Solani = experiment: Direct protectant activity against tomato early blight (As); type: in vivo; design: As: activity against tomato early blight: scale not given here; settings: foliar spray as under (a), 8 days; activity grade 1 or 2, not defined; also: dose 1000 g/ha
Description: (g) Activity Against Tomato Early Blight (Alternaria Solani; As). The test is a direct protectant one using a foliar spray. The upper surfaces of leaves of young tomato plants are sprayed with a solution of active material as described in (a) above. After 24 hours under normal glasshouse conditions, the upper surfaces of the leaves are inoculated by spraying with an aqueous suspension containing 10^4 spores/ml. The inoculated plants are kept for 72 hours in a high humidity compartment and are then removed to lower humidity (50-70% relative humidity). Assessment is made 8 days after inoculation.

Botrytis cinerea = experiment: Direct protectant activity against vine grey mould (Bcp); type: in vivo; settings: foliar spray, 1 kg/ha; activity grade 1 or 2, not defined
Description: (b) Direct Protectant Activity Against Vine Grey Mould (Botrytis cinerea; Bcp) The test is a direct protectant one using a foliar spray and is effected as described under (a), with the difference that the leaves are inoculated by spraying with an aqueous solution containing 10^5 conidia/ml.

| Structure (SMILES) | MIC (Aspergillus niger) [µg/mL] | MIC (Escherichia coli) [µg/mL] | Ph: activity against wheat eyespot [1] | MIC (Bacillus subtilis) [µg/mL] | MIC (Saccharomyces cerevisiae) [µg/mL] | MIC (Cladosporium resinae) [µg/mL] | MIC (Chaetomium globosum) [µg/mL] | Ln: activity against wheat leafspot (Leptosphaeria nodorum) | MIC (Staphylococcus aureus) [µg/mL] | MIC (Desulfovibrio sp.) [µg/mL] | Fs: activity against seedling wheat blight (Fusarium culmorum) | Eg: activity against barley powdery mildew [2] | Pr: activity against wheat brown rust (Puccinia Recondita) | Pvp: direct protectant activity against vine downy mildew (Plasmopara viticola) | As: activity against tomato early blight (Alternaria Solani) | Bcp: direct protectant activity against vine grey mould (Botrytis cinerea) |
| --- | --- | --- | --- | --- | --- | --- | --- | --- | --- | --- | --- | --- | --- | --- | --- | --- |
| CCC1Cc2cccc([N+]([O-])=NC#N)c2O1 (centres unmarked) [Example 8] | 10 (≈ 46 µM) | > 100 | 2 | > 100 | 100 (≈ 460 µM) | 10 (≈ 46 µM) | < 100 | 1 | > 100 | > 100 | 2 | 1 | – | – | – | – |
| Cc1cc2c(c([N+]([O-])=NC#N)c1)OC(C)(C)C2 [Example 7] | – | – | 1 | – | – | – | – | 1 | – | – | 1 | – | 2 | 2 | – | – |
| CCc1cc2cccc([N+]([O-])=NC#N)c2o1 [Example 19] | – | – | 1 | – | – | – | – | – | – | – | 1 | 1 | 2 | – | 2 | – |
| N#CN=[N+]([O-])c1cccc2cc(-c3ccccc3)oc12 [Example 21] | – | – | – | – | – | – | – | – | – | – | – | – | – | – | – | 1 |
| N#CN=[N+]([O-])c1ccc2oc3c(c2c1)CCCC3 [Example 24] | – | – | 1 | – | – | – | – | – | – | – | 1 | – | 1 | 2 | 2 | – |
| CCCCc1cc2cccc([N+]([O-])=NC#N)c2o1 [Example 20] | 100 (≈ 411 µM) | > 100 | – | > 100 | > 100 | 100 (≈ 411 µM) | – | 1 | > 100 | > 100 | 2 | – | 1 | – | – | – |
| COC(=O)N=[N+]([O-])c1cc(C)cc2c1OC(C)C2 (centres unmarked) [Example 45] | – | – | – | – | – | – | – | – | – | – | – | 2 | – | 1 | 1 | – |
